Assay [1] addresses Replicase polyprotein 1ab (Severe acute respiratory syndrome coronavirus 2, UniProt P0DTD1). Description: Inhibition of N-terminal his-tagged SARS-CoV-2 Main protease expressed in Escherichia coli BL21 (DE3) using Dabcyl-TSAVLWSGFRICMK-Edans as substrate preincubated for 10 mins by microplate reader analysis.
In a further assay the test system is SARS-CoV-2. Put plainly: Antiviral activity against SARS-CoV-2 infected in human Caco-2 cells assessed as inhibition of viral infection preincubated for 1 hr followed by viral infection measured after 48 hrs by CQ1 confocal quantitative image cytometer analysis. It counts as functional, organism-based. Particulars: for pEC50: Severe acute respiratory syndrome coronavirus 2, Caco-2.

pEC50, pIC50: −log10 of the molar value. Activity calls are given as the source filed them. The rule behind the calls is not given here.

The term pIC50 denotes the negative decadic logarithm of the IC50, by convention in mol/L. One may read the pEC50 as the negative decadic logarithm of the EC50, by convention in mol/L. In the case of `CC(C)C[C@@H]1NC(=O)[C@H](Cc2ccccc2)NC(=O)[C@@H]2CCCN2C(=O)[C@H]([C@@H](C)O)NC(=O)[C@H]([C@@H](C)O)NC(=O)[C@H]([C@@H](C)O)NC(=O)[C@H](Cc2c[nH]cn2)NC(=O)[C@H](Cc2cccc(F)c2)NC(=O)[C@H]([C@@H](C)O)NC(=O)[C@H](C(C)C)NC(=O)[C@@H](Cc2ccc(O)cc2)NC(=O)CSC[C@@H](C(=O)NCC(N)=O)NC(=O)[C@@H]2CCCN2C(=O)[C@@H]2CCCN2C1=O`, the pIC50 in assay [1] was 6.60. The pEC50 in the assay with SARS-CoV-2 was less than 4.00.

In turn, `CC[C@H](C)[C@@H]1NC(=O)[C@@H](Cc2ccc(O)cc2)NC(=O)CSC[C@@H](C(N)=O)NC(=O)[C@H]([C@@H](C)CC)NC(=O)[C@@H]2CCCN2C(=O)[C@@H]2CCCN2C(=O)[C@H](Cc2ccccc2)NC(=O)[C@H](CO)NC(=O)[C@H](CCC(N)=O)NC1=O` gave a pIC50 in assay [1] of 5.85. The outcome in the assay with SARS-CoV-2 (Severe acute respiratory syndrome coronavirus 2, time 49.0 hrs) was inactive.

Compound `CC(C)[C@@H]1NC(=O)[C@@H](Cc2ccc(O)cc2)NC(=O)CC[C@@H](C(=O)NCC(N)=O)NC(=O)[C@@H]2CCCN2C(=O)[C@@H]2CCCN2C(=O)[C@@H]2CSCc3cccc(c3)CSC[C@H](NC1=O)C(=O)N[C@@H](Cc1ccccc1)C(=O)N[C@@H](Cc1c[nH]cn1)C(=O)N[C@@H]([C@@H](C)O)C(=O)N[C@@H]([C@@H](C)O)C(=O)N[C@@H]([C@@H](C)O)C(=O)N1CCC[C@H]1C(=O)N[C@@H](Cc1ccccc1)C(=O)N2` showed a pIC50 in assay [1] of 6.36. In addition, the pEC50 in the assay on SARS-CoV-2 is less than 4.00. In assay [1], `CC(C)C[C@@H]1NC(=O)[C@H](Cc2ccccc2)NC(=O)[C@@H]2CCCN2C(=O)[C@H](C)NC(=O)[C@H]([C@@H](C)O)NC(=O)[C@H]([C@@H](C)O)NC(=O)[C@H](Cc2c[nH]cn2)NC(=O)[C@H](Cc2ccccc2)NC(=O)[C@H]([C@@H](C)O)NC(=O)[C@H](C(C)C)NC(=O)[C@@H](Cc2ccc(O)cc2)NC(=O)CSC[C@@H](C(=O)NCC(N)=O)NC(=O)[C@@H]2CCCN2C(=O)[C@@H]2CCCN2C1=O` showed a pIC50 of 6.66.

On to `CC(C)C[C@@H]1NC(=O)[C@H](Cc2ccccc2)NC(=O)[C@@H]2CCCN2C(=O)[C@H]([C@@H](C)O)NC(=O)[C@H]([C@@H](C)O)NC(=O)[C@H]([C@@H](C)O)NC(=O)[C@H](Cc2c[nH]cn2)NC(=O)[C@H](Cc2ccccc2)NC(=O)[C@H]([C@@H](C)O)NC(=O)[C@H](C(C)C)NC(=O)[C@@H](Cc2ccc(O)cc2)NC(=O)CSC[C@@H](C(=O)NCC(N)=O)NC(=O)[C@H](C)NC(=O)[C@@H]2CCCN2C1=O`, for which the pIC50 in assay [1] is 5.71. Same read-out and setting: the figure for `CC(C)C[C@@H]1NC(=O)[C@H](Cc2ccccc2)NC(=O)[C@@H]2CCCN2C(=O)[C@H]([C@@H](C)O)NC(=O)[C@H]([C@@H](C)O)NC(=O)[C@H]([C@@H](C)O)NC(=O)[C@H](C)NC(=O)[C@H](Cc2ccccc2)NC(=O)[C@H]([C@@H](C)O)NC(=O)[C@H](C(C)C)NC(=O)[C@@H](Cc2ccc(O)cc2)NC(=O)CSC[C@@H](C(=O)NCC(N)=O)NC(=O)[C@@H]2CCCN2C(=O)[C@@H]2CCCN2C1=O` is less than 5.00; for `CC(C)C[C@@H]1NC(=O)[C@H](C)NC(=O)[C@@H]2CCCN2C(=O)[C@H]([C@@H](C)O)NC(=O)[C@H]([C@@H](C)O)NC(=O)[C@H]([C@@H](C)O)NC(=O)[C@H](Cc2c[nH]cn2)NC(=O)[C@H](Cc2ccccc2)NC(=O)[C@H]([C@@H](C)O)NC(=O)[C@H](C(C)C)NC(=O)[C@@H](Cc2ccc(O)cc2)NC(=O)CSC[C@@H](C(=O)NCC(N)=O)NC(=O)[C@@H]2CCCN2C(=O)[C@@H]2CCCN2C1=O` it is 5.24; for `CC(C)C[C@@H]1NC(=O)[C@H](Cc2ccccc2)NC(=O)[C@@H]2CCCN2C(=O)[C@H]([C@@H](C)O)NC(=O)[C@H]([C@@H](C)O)NC(=O)[C@H]([C@@H](C)O)NC(=O)[C@H](Cc2c[nH]cn2)NC(=O)[C@H](Cc2ccccc2)NC(=O)[C@H]([C@@H](C)O)NC(=O)[C@H](C(C)C)NC(=O)[C@@H](Cc2ccc(O)cc2)NC(=O)CSC[C@@H](C(=O)NCC(N)=O)NC(=O)[C@@H]2CCCN2C(=O)[C@H](C)NC1=O` it is 6.21.
